Calls of active or inactive are those of the source.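 Rule for the calls: active = rising protection curve whose AC50 sits at or below ten times the top dose tested for that sample; inconclusive = flat response between 30 and 70 percent, or poor fit; inactive = the rest.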

This experiment can be described thus: protection from cytokine-induced mitochondrial depolarization, dose response, cell-based, INS-1E, JC-1 fluorescence ratio, dry powder (AID 488931). As to conditions: INS-1E cytokine-induced mitochondrial depolarization, JC-1 ratio, 48 h; at 19.5 µM (top of the series).
Take `C[C@@H]1CN([C@@H](C)CO)C(=O)c2cccc(NC(=O)Nc3cccc4ccccc34)c2O[C@H]1CN(C)CC1CC1`: the protection from depolarization is 9.67% (inactive).
`C[C@@H]1CN([C@@H](C)CO)C(=O)c2cccc(NC(=O)Nc3cccc4ccccc34)c2O[C@H]1CN(C)S(=O)(=O)c1cccc(F)c1`: the protection from depolarization was -3.75% (inactive).
For the molecule `COc1ccc(S(=O)(=O)N(C)C[C@@H]2Oc3c(NS(=O)(=O)c4ccc(Cl)cc4)cccc3C(=O)N([C@@H](C)CO)C[C@H]2C)cc1`, the protection from depolarization is 3.44% (inactive).
On to `COc1ccc(S(=O)(=O)N(C)C[C@@H]2Oc3ccc(NC(=O)Nc4cccc5ccccc45)cc3C(=O)N([C@@H](C)CO)C[C@H]2C)cc1`, for which the protection from depolarization is -7.17% (inactive).
As to `C[C@@H]1CN([C@@H](C)CO)C(=O)c2cccc(NC(=O)Nc3cccc4ccccc34)c2O[C@H]1CN(C)C(=O)Nc1ccc(F)cc1`, the protection from depolarization was -0.192% (inactive).
For the molecule `C[C@@H]1CN([C@@H](C)CO)C(=O)c2cccc(NC(=O)Nc3cccc4ccccc34)c2O[C@H]1CN(C)C(=O)Nc1ccccc1`, the protection from depolarization was -8.43% (inactive).
On to `C[C@@H]1CN([C@@H](C)CO)C(=O)c2cccc(NC(=O)Nc3cccc4ccccc34)c2O[C@H]1CN(C)S(=O)(=O)c1ccc2c(c1)OCCO2`, for which the protection from depolarization was 19.2% (inactive).
The result for `C[C@@H]1CN([C@@H](C)CO)C(=O)c2cccc(NC(=O)Nc3cccc4ccccc34)c2O[C@H]1CN(C)S(=O)(=O)c1ccccc1` reads 12.8% (inactive); that for `COc1ccc(S(=O)(=O)N(C)C[C@@H]2Oc3c(NC(=O)Nc4cccc5ccccc45)cccc3C(=O)N([C@@H](C)CO)C[C@H]2C)cc1`, 10.7% (inactive); that for `C[C@@H]1CN([C@H](C)CO)C(=O)c2cccc(NC(=O)Nc3ccccc3)c2O[C@H]1CN(C)S(=O)(=O)c1ccc(F)cc1`, 3.73% (inactive).
Regarding `C[C@@H]1CN([C@@H](C)CO)C(=O)c2cccc(NC(=O)Nc3cccc4ccccc34)c2O[C@H]1CN(C)S(=O)(=O)c1ccc2c(c1)OCCCO2`, the protection from depolarization was 5.1% (inactive).
In the case of `COc1ccc(S(=O)(=O)N(C)C[C@@H]2Oc3c(NC(=O)Nc4cccc5ccccc45)cccc3C(=O)N([C@H](C)CO)C[C@@H]2C)cc1`, the protection from depolarization was 2.53% (inactive).
`Cc1noc(C)c1NC(=O)N(C)C[C@@H]1Oc2c(NC(=O)Nc3cccc4ccccc34)cccc2C(=O)N([C@@H](C)CO)C[C@H]1C`: the protection from depolarization was 10.5% (inactive).
Regarding `C[C@@H]1CN([C@@H](C)CO)C(=O)c2cccc(NC(=O)Nc3cccc4ccccc34)c2O[C@H]1CN(C)C(=O)Nc1ccc(C(F)(F)F)cc1`, the protection from depolarization is -10.5% (inactive).
`COc1ccc(S(=O)(=O)N(C)C[C@@H]2Oc3c(NS(=O)(=O)c4cn(C)cn4)cccc3C(=O)N([C@@H](C)CO)C[C@H]2C)cc1`: the protection from depolarization is 1.64% (inactive).
For the molecule `COc1ccc(S(=O)(=O)N(C)C[C@@H]2Oc3c(NC(=O)c4cccc5ccccc45)cccc3C(=O)N([C@@H](C)CO)C[C@H]2C)cc1`, the protection from depolarization was 5.96% (inactive).
As to `COc1ccc(S(=O)(=O)N(C)C[C@@H]2Oc3c(NC(=O)c4nc5ccccc5s4)cccc3C(=O)N([C@@H](C)CO)C[C@H]2C)cc1`, the protection from depolarization was -8.98% (inactive).
The result for `C[C@@H]1CN([C@@H](C)CO)C(=O)c2cccc(NC(=O)Nc3cccc4ccccc34)c2O[C@H]1CN(C)S(=O)(=O)c1cn(C)cn1` reads -9.26% (inactive).
Regarding `C[C@H]1CN([C@@H](C)CO)C(=O)c2cccc(NC(=O)NC3CCCCC3)c2O[C@@H]1CN(C)S(C)(=O)=O`, the protection from depolarization is 4.62% (inactive).
In the case of `COc1ccc(S(=O)(=O)N(C)C[C@@H]2Oc3c(NC(=O)C4CCOCC4)cccc3C(=O)N([C@@H](C)CO)C[C@H]2C)cc1`, the protection from depolarization is 0.344% (inactive).
The result for `C[C@@H]1CN([C@@H](C)CO)C(=O)c2cccc(NC(=O)Nc3cccc4ccccc34)c2O[C@H]1CN(C)S(=O)(=O)c1ccc2c(c1)oc(=O)n2C` reads 23.7% (inactive).
With `Cc1ccc(S(=O)(=O)N(C)C[C@H]2Oc3c(NC(=O)Nc4cccc5ccccc45)cccc3C(=O)N([C@@H](C)CO)C[C@@H]2C)cc1`, the protection from depolarization is -8.26% (inactive).
As for `C[C@@H]1CN([C@H](C)CO)C(=O)c2cccc(NC(=O)Nc3cccc4ccccc34)c2O[C@H]1CN(C)S(=O)(=O)c1ccc(Cl)cc1`, the protection from depolarization is 20.7% (inactive).
For the molecule `C[C@@H]1CN([C@@H](C)CO)C(=O)c2cccc(NC(=O)Nc3ccccc3)c2O[C@H]1CN(C)S(=O)(=O)c1ccc(Cl)cc1`, the protection from depolarization was 18.7% (inactive).
For `COc1ccc(S(=O)(=O)N(C)C[C@@H]2Oc3c(NC(=O)Nc4cccc5ccccc45)cccc3C(=O)N([C@@H](C)CO)C[C@H]2C)c(OC)c1` the value was 9.11% (inactive).
On to `COc1ccc(S(=O)(=O)N(C)C[C@@H]2Oc3c(cccc3N(C)C)C(=O)N([C@@H](C)CO)C[C@H]2C)cc1`, for which the protection from depolarization is -3.81% (inactive).
The result for `COc1ccc(S(=O)(=O)N(C)C[C@@H]2Oc3c(NC(=O)Nc4ccc(C(F)(F)F)cc4)cccc3C(=O)N([C@@H](C)CO)C[C@H]2C)cc1` reads 12.6% (inactive).
Turning to `C[C@@H]1CN([C@@H](C)CO)C(=O)c2cccc(NC(=O)Nc3cccc4ccccc34)c2O[C@H]1CN(C)S(=O)(=O)c1ccc(OC(F)(F)F)cc1`, the protection from depolarization was -17.1% (inactive).
The result for `COc1ccc(S(=O)(=O)N(C)C[C@@H]2Oc3c(NC(=O)Nc4ccc(F)cc4)cccc3C(=O)N([C@H](C)CO)C[C@H]2C)cc1` reads 10.6% (inactive); that for `COc1ccc(S(=O)(=O)N(C)C[C@@H]2Oc3c(NS(=O)(=O)c4ccccc4)cccc3C(=O)N([C@@H](C)CO)C[C@H]2C)cc1`, 7.15% (inactive).
As for `C[C@@H]1CN([C@@H](C)CO)C(=O)c2cccc(NC(=O)Nc3ccccc3)c2O[C@H]1CN(C)S(=O)(=O)c1ccc(F)cc1`, the protection from depolarization is 11.5% (inactive).
On to `COc1ccccc1S(=O)(=O)N(C)C[C@@H]1Oc2c(NC(=O)Nc3cccc4ccccc34)cccc2C(=O)N([C@@H](C)CO)C[C@H]1C`, for which the protection from depolarization was 4.59% (inactive).
For `COc1ccc(S(=O)(=O)N(C)C[C@H]2Oc3c(NC(=O)Nc4cccc5ccccc45)cccc3C(=O)N([C@H](C)CO)C[C@H]2C)cc1`, the protection from depolarization was 7.31% (inactive).
Regarding `COc1ccc(S(=O)(=O)N(C)C[C@@H]2Oc3c(NC(=O)Nc4ccc(F)cc4)cccc3C(=O)N([C@@H](C)CO)C[C@H]2C)cc1`, the protection from depolarization is 23.9% (inactive).
`COc1ccc(S(=O)(=O)N(C)C[C@@H]2Oc3c(NC(=O)C4CC4)cccc3C(=O)N([C@@H](C)CO)C[C@H]2C)cc1`: the protection from depolarization is 0.699% (inactive).
Take `COc1ccc(NC(=O)Nc2cccc3c2O[C@@H](CN(C)S(=O)(=O)c2ccc(OC)cc2)[C@H](C)CN([C@@H](C)CO)C3=O)cc1`: the protection from depolarization was -0.254% (inactive).
Consider `C[C@@H]1CN([C@@H](C)CO)C(=O)c2cccc(NC(=O)Nc3cccc4ccccc34)c2O[C@H]1CN(C)C(=O)NC1CCCCC1`, for which the protection from depolarization is -5.64% (inactive).
The result for `COc1ccc(S(=O)(=O)N(C)C[C@@H]2Oc3c(NC(=O)c4cnccn4)cccc3C(=O)N([C@@H](C)CO)C[C@H]2C)cc1` reads -0.183% (inactive).
As to `Cc1ccc(S(=O)(=O)N(C)C[C@@H]2Oc3c(NC(=O)Nc4ccc(F)cc4)cccc3C(=O)N([C@H](C)CO)C[C@H]2C)cc1`, the protection from depolarization is 15.8% (inactive).
Regarding `COc1ccc(S(=O)(=O)N(C)C[C@@H]2Oc3c(NC(=O)c4cc(C)nn4C)cccc3C(=O)N([C@@H](C)CO)C[C@H]2C)cc1`, the protection from depolarization was -6.67% (inactive).
For the molecule `C[C@@H]1CN([C@@H](C)CO)C(=O)c2cccc(NC(=O)Nc3cccc4ccccc34)c2O[C@H]1CN(C)S(=O)(=O)c1ccc2c(c1)OCO2`, the protection from depolarization was 14.5% (inactive).
On to `Cc1ccc(S(=O)(=O)N(C)C[C@@H]2Oc3c(NC(=O)Nc4cccc5ccccc45)cccc3C(=O)N([C@@H](C)CO)C[C@H]2C)cc1`, for which the protection from depolarization is 13.7% (inactive).
For `COc1ccc(S(=O)(=O)N(C)C[C@@H]2Oc3c(NS(C)(=O)=O)cccc3C(=O)N([C@@H](C)CO)C[C@H]2C)cc1`, the protection from depolarization is -3.87% (inactive).
In the case of `C[C@@H]1CN([C@@H](C)CO)C(=O)c2cccc(NC(=O)Nc3cccc4ccccc34)c2O[C@H]1CN(C)S(=O)(=O)c1cccs1`, the protection from depolarization is -8.53% (inactive).
With `C[C@@H]1CN([C@@H](C)CO)C(=O)c2cccc(NS(=O)(=O)c3ccccc3)c2O[C@H]1CN(C)Cc1ccc(C(F)(F)F)cc1`, the protection from depolarization was -0.0726% (inactive).
On to `COc1ccc(S(=O)(=O)N(C)C[C@@H]2Oc3c(NC(=O)c4ccc(-c5nccs5)cc4)cccc3C(=O)N([C@@H](C)CO)C[C@H]2C)cc1`, for which the protection from depolarization is 3.72% (inactive).
Take `C[C@@H]1CN([C@@H](C)CO)C(=O)c2cccc(NC(=O)Nc3cccc4ccccc34)c2O[C@H]1CN(C)C(=O)Nc1ccc2c(c1)OCO2`: the protection from depolarization was 0.627% (inactive).
For `C[C@@H]1CN([C@@H](C)CO)C(=O)c2cccc(NC(=O)Nc3cccc4ccccc34)c2O[C@H]1CN(C)S(=O)(=O)c1ccc(F)cc1` the value was 6.22% (inactive); for `COc1ccc(NC(=O)N(C)C[C@@H]2Oc3c(NC(=O)Nc4cccc5ccccc45)cccc3C(=O)N([C@@H](C)CO)C[C@H]2C)cc1`, -6.82% (inactive); for `C[C@@H]1CN([C@H](C)CO)C(=O)c2cccc(NC(=O)Nc3ccccc3)c2O[C@H]1CN(C)S(=O)(=O)c1ccc(Cl)cc1`, 27.7% (inactive).
In the case of `CNC[C@@H]1Oc2c(NC(=O)Nc3cccc4ccccc34)cccc2C(=O)N([C@@H](C)CO)C[C@H]1C`, the protection from depolarization is 4.81% (inactive).
Regarding `COc1ccc(S(=O)(=O)N(C)C[C@@H]2Oc3c(NS(=O)(=O)c4ccc(F)cc4)cccc3C(=O)N([C@@H](C)CO)C[C@H]2C)cc1`, the protection from depolarization was 2.07% (inactive).

For the origin of these results see PubChem BioAssay AID488931 (Broad Institute, 2010).
